Columns and labels:
[1] = target: SARS-CoV-2 Papain-like (PLpro) protease (Severe acute respiratory syndrome coronavirus 2, UniProt P0DTD1); test: SARS-CoV-2 Papain-like (PLpro) protease biochemical enzyme inhibition assay (ubiquitin-fluorophore substrate, Ub-R110); settings: Ub-R110 substrate; run in duplicate; read-out: PLpro IC50
SARS-CoV-2 replicon = test: microbe, parasite or virus in culture; assay type: cell-based; settings: Severe acute respiratory syndrome coronavirus 2, Huh-7

Structure (SMILES)	IC50 [1] [nM]	EC50 (SARS-CoV-2 replicon) [nM]
COC(=O)/C=C/CNC(=O)C(=O)NNc1ccccc1C(=O)NC1(c2cccc3ccccc23)CC1 [Example 576]	< 100	< 1000
N#CCNC(=O)C(=O)NCc1ccccc1C(=O)NC1(c2cn(-c3cnn(C4CC4)c3)c3ncccc23)CC1 [Example 409]	< 100	1000 to 10000
CC(C)n1ncnc1C#C[C@H](C)NC(=O)C(=O)NCc1ccccc1C(=O)NC1(c2cc(F)cc(-c3cnn(C4CC4)c3)c2)CC1 [Example 276]	< 100	< 1000
C#CCNC(=O)C(=O)NCc1ccccc1C(=O)NC1(c2cc(F)cc(-c3cnn(C4CC4)c3)c2)CC1 [Example 226]	< 100	< 1000
CCOc1cccnc1C#CCNC(=O)C(=O)NCc1ccccc1C(=O)NC1(c2ccc3ccccc3c2)CC1 [Example 200]	< 100	< 1000
N#CCNC(=O)C(=O)NCc1ccc(OCCO)cc1C(=O)NC1(c2cccc3ccccc23)CC1 [Example 320]	< 100	< 1000
N#Cc1cccc(C#CCNC(=O)C(=O)NCc2ccccc2C(=O)NC2(c3ccc4ccccc4c3)CC2)n1 [Example 193]	< 100	< 1000
C[C@@H](NC(=O)c1c(F)cccc1CNC(=O)C(=O)NCC#N)c1cccc2ccccc12 [Example 29]	< 100	1000 to 10000
Cn1cc2cc(C3(NC(=O)c4ccccc4CNC(=O)C(=O)NCC#Cc4ncccc4OCC(F)F)CC3)ccc2n1 [Example 211]	< 100	< 1000
N#Cc1ccc(C#CCNC(=O)C(=O)NCc2ccccc2C(=O)NC2(c3ccc4ccccc4c3)CC2)c(F)c1 [Example 86]	< 100	< 1000
COc1ccc(C2(NC(=O)c3ccccc3CNC(=O)C(=O)NCC#Cc3nccs3)CC2)cc1-c1cnn(C2CC2)c1 [Example 247]	< 100	< 1000
CC(C)(O)Cn1cc(-c2cc(F)cc(C3(NC(=O)c4ccccc4CNC(=O)C(=O)NCC#Cc4ncccc4Cl)CC3)c2)cn1 [Example 281]	< 100	< 1000
N#Cc1cccc(NC(=O)/C=C/CNC(=O)C(=O)NCc2ccccc2C(=O)NC2(c3cccc4ccccc34)CC2)c1 [Example 574]	100 to 1000	1000 to 10000
C#CCNC(=O)C(=O)NCc1ccccc1C(=O)NC1(c2ccc(F)c(Br)c2)CC1 [Example 227]	< 100	< 1000
CC(C#N)NC(=O)C(=O)NCc1ccccc1C(=O)NC1(c2cccc3ccccc23)CC1 (centres unmarked) [Example 33]	100 to 1000	> 10000
O=C(NCC#CBr)C(=O)NCc1ccccc1C(=O)NC1(c2cc(Br)cc3ccccc23)CC1 [Example 154]	< 100	< 1000
N#CCNC(=O)C(=O)NCc1ccccc1C(=O)NC1(c2cc(-c3cnn[nH]3)cc3ccccc23)CC1 [Example 425]	< 100	< 1000
Cc1nn(C)cc1-c1cc(F)cc(C2(NC(=O)c3ccccc3CNC(=O)C(=O)N[C@@H](C)C#Cc3ncccc3Cl)CC2)c1 [Example 275]	< 100	< 1000
Cc1n[nH]c(C)c1-c1cc(C2(NC(=O)c3ccccc3CNC(=O)C(=O)NCC#N)CC2)c2ccccc2c1 [Example 288]	< 100	1000 to 10000
C#CCNC(=O)C(=O)NCc1ccccc1C(=O)NC1(c2cc(F)cc(Br)c2)CC1 [Example 228]	< 100	< 1000

Structure (SMILES)	IC50 [1] [nM]	EC50 (SARS-CoV-2 replicon) [nM]
O=C(NCC#Cc1cscn1)C(=O)NCc1ccccc1C(=O)NC1(c2cccc3ccccc23)CC1 [Example 159]	< 100	< 1000
C[C@@H](C#Cc1ccc(C#N)cc1Cl)NC(=O)C(=O)NCc1ccccc1C(=O)NC1(c2ccc3nn(C)cc3c2)CC1 [Example 107]	< 100	< 1000
C#CCNC(=O)C(=O)NCc1ccccc1C(=O)NC1(c2cccc(-c3cnn(C4CC4)c3)c2Cl)CC1 [Example 381]	< 100	< 1000
COc1ccc2cccc(C3(NC(=O)c4ccccc4CNC(=O)C(=O)NCC#N)CC3)c2c1 [Example 348]	< 100	1000 to 10000
C#CCNC(=O)C(=O)NCc1ccccc1C(=O)NC1(c2cccc(-c3cccs3)c2Cl)CC1 [Example 383]	< 100	< 1000
Cc1cccnc1C#C[C@H](C)NC(=O)C(=O)NCc1ccccc1C(=O)NC1(c2cc(F)cc(-c3cnn(C4CC4)c3)c2)CC1 [Example 266]	< 100	< 1000
O=C(NCC#Cc1nccs1)C(=O)NCc1ccccc1C(=O)NC1(c2ccc3ccccc3c2)CC1 [Example 167]	< 100	< 1000
C#CCNC(=O)C(=O)NCc1ccccc1C(=O)NC1(c2cc(-c3c(C)n[nH]c3C)cc(C(F)(F)F)c2)CC1 [Example 477]	< 100	< 1000
N#CCNC(=O)C(=O)NCc1ccccc1C(=O)NC1(c2cc(C#N)cc(-c3cccs3)c2)CC1 [Example 127]	< 100	1000 to 10000
C#CCNC(=O)C(=O)NCc1ccccc1C(=O)NC1(c2cc(-c3cn(C4CC4)nn3)cc(C(F)(F)F)c2)CC1 [Example 59]	< 100	< 1000
N#Cc1cc(F)c(C#CCNC(=O)C(=O)NCc2ccccc2C(=O)NC2(c3ccc4ccccc4c3)CC2)c(F)c1 [Example 87]	< 100	< 1000
C[C@@H](NC(=O)c1ccccc1CNC(=O)C(=O)NCC#N)c1cc(-c2cnn(C(F)F)c2)cc(C(F)(F)F)c1 [Example 463]	100 to 1000	1000 to 10000
C[C@@H](NC(=O)c1ccccc1CNC(=O)C(=O)NCC#Cc1nccs1)c1cc(F)cc(-c2cnn(C(F)F)c2)c1 [Example 492]	< 100	< 1000
COc1cc(C2(NC(=O)c3ccccc3CNC(=O)C(=O)N[C@@H](C)C#Cc3nccs3)CC2)cc2cn(C3CC3)nc12 [Example 336]	< 100	< 1000
O=C(NCC#Cc1nccs1)C(=O)NCc1ccccc1C(=O)NC1(c2cc(F)cc(-c3ccn(C(F)F)n3)c2)CC1 [Example 136]	< 100	< 1000
N#CCNC(=O)C(=O)NCc1ccccc1C(=O)NC1(c2cc(F)cc(Br)c2)CC1 [Example 218]	100 to 1000	> 10000
CC(C)(O)c1cccc(-c2cc(C3(NC(=O)c4ccccc4CNC(=O)C(=O)NCC#N)CC3)c3ccccc3c2)n1 [Example 283]	< 100	< 1000
COc1cc(C2(NC(=O)c3ccccc3CNC(=O)C(=O)N[C@@H](C)C#Cc3ccc(C#N)cc3F)CC2)cc2cn(C3CC3)nc12 [Example 334]	< 100	< 1000
C[C@@H](C#Cc1ncccc1Cl)NC(=O)C(=O)NCc1ccccc1C(=O)NC1(c2cc(F)cc(-c3cnn(CC(C)(C)O)c3)c2)CC1 [Example 280]	< 100	< 1000
CC(C)(O)c1ccc(-c2cc(C3(NC(=O)c4ccccc4CNC(=O)C(=O)NCC#N)CC3)c3ccccc3c2)s1 [Example 354]	< 100	< 1000

Structure (SMILES)	IC50 [1] [nM]	EC50 (SARS-CoV-2 replicon) [nM]
C#CCNC(=O)C(=O)NCc1ccccc1C(=O)NC1(c2cc(F)cc(-c3cccs3)c2)CC1 [Example 224]	< 100	< 1000
O=C(NCC#Cc1nccs1)C(=O)NCc1ccccc1C(=O)NC1(c2cc(-c3ccn(C4CC4)n3)cc(F)c2F)CC1 [Example 305]	< 100	< 1000
Cc1nn(C2CC2)c(C)c1-c1cc(F)cc(C2(NC(=O)c3ccccc3CNC(=O)C(=O)NCC#Cc3nccs3)CC2)c1 [Example 139]	< 100	< 1000
C[C@@H](C#Cc1nccs1)NC(=O)C(=O)NCc1ccccc1C(=O)NC1(c2ccc3nn(C)cc3c2F)CC1 [Example 333]	< 100	< 1000
Cc1nn(C)c(C)c1-c1cc(C2(NC(=O)c3ccccc3CNC(=O)C(=O)N[C@@H](C)C#Cc3nccs3)CC2)cc2ccccc12 [Example 298]	< 100	< 1000
O=C(NCC#Cc1nccs1)C(=O)NCc1ccccc1C(=O)NC1(c2cc(Cl)cc(-c3ncco3)c2)CC1 [Example 487]	< 100	< 1000
C#CCNC(=O)C(=O)NCc1ccccc1C(=O)NC1(c2cc(Cl)cc(-c3cnn(C4CC4)c3)c2)CC1 [Example 453]	< 100	< 1000
COc1cc(-c2cnn(C3CC3)c2)cc(C2(NC(=O)c3ccccc3CNC(=O)C(=O)NCC#Cc3nccs3)CC2)c1 [Example 246]	< 100	< 1000
Cc1nn(C)c(C)c1-c1cc(C2(NC(=O)c3ccccc3CNC(=O)C(=O)NCC#Cc3nccs3)CC2)cc2ccccc12 [Example 299]	< 100	< 1000
C#CCNC(=O)C(=O)NCc1ccccc1C(=O)NC1(c2cc(Cl)cc(-c3cnco3)c2)CC1 [Example 450]	< 100	< 1000
O=C(/C=C/CNC(=O)C(=O)NCc1ccccc1C(=O)NC1(c2cccc3ccccc23)CC1)Nc1ccccc1 [Example 561]	100 to 1000	1000 to 10000
C#CCNC(=O)C(=O)NCc1ccccc1C(=O)NC1(c2cc(C#N)cc(-c3cccs3)c2)CC1 [Example 128]	< 100	< 1000
N#CCNC(=O)C(=O)NCc1ccccc1C(=O)NC1(c2cc(C(=O)NC3CC3)cc3ccccc23)CC1 [Example 117]	< 100	1000 to 10000
C[C@@H](C#Cc1c(F)cc(F)cc1C#N)NC(=O)C(=O)NCc1ccccc1C(=O)NC1(c2ccc3nn(C)cc3c2)CC1 [Example 105]	< 100	< 1000
O=C(NCC#Cc1ncco1)C(=O)NCc1ccccc1C(=O)NC1(c2ccc3ccccc3c2)CC1 [Example 137]	< 100	< 1000
O=C(NCC#Cc1ccc(C(F)(F)F)cc1F)C(=O)NCc1ccccc1C(=O)NC1(c2ccc3ccccc3c2)CC1 [Example 175]	100 to 1000	1000 to 10000
Cn1ccc(-c2cc(C3(NC(=O)c4ccccc4CNC(=O)C(=O)NCC#N)CC3)c3ccccc3c2)n1 [Example 290]	< 100	< 1000
O=C(/C=C/CNC(=O)C(=O)NCc1ccccc1C(=O)NC1(c2cccc3ccccc23)CC1)NCC(F)(F)F [Example 572]	100 to 1000	> 10000
